Assay results as given in ChEMBL document CHEMBL4706552, “Discovery of 4-methyl-N-(4-((4-methylpiperazin- 1-yl)methyl)-3-(trifluoromethyl)phenyl)-3-((6-(pyridin-3-yl)-1H-pyrazolo[3,4-d]pyrimidin-4-yl)-oxy)benzamide as a potent inhibitor of RET and its gatekeeper mutant” (Eur J Med Chem, 2020).
The source made the active and inactive calls. The calls are words filed in the database; no cut-off is given here.

How the values were obtained:
BaF3 [1] = assay: Induction of apoptosis in KIF5B-RET V804M mutant fusion protein expressing mouse BaF3 cells implanted in BALB/c mouse assessed as increase in cleaved caspase-3 level at 30 to 50 mg/kg, iv administered once daily for 7 days measured 4 hrs post last dose by H and E staining based immunohistochemical analysis; format: functional, organism-based; settings: dose 30-50 mg/kg, time 7.0 day
[2] = biological target: T1, Kinesin-1 heavy chain/ Tyrosine-protein kinase receptor RET (Homo sapiens) (UniProt P07949+P33176); assay: Inhibition of KIF5B-RET fusion protein (unknown origin) expressed in mouse BaF3 cells assessed as reduction in […] measured after 4 hrs by Western blot analysis; format: cell-based
T1 sequence (P07949 29-1114 limits assumed): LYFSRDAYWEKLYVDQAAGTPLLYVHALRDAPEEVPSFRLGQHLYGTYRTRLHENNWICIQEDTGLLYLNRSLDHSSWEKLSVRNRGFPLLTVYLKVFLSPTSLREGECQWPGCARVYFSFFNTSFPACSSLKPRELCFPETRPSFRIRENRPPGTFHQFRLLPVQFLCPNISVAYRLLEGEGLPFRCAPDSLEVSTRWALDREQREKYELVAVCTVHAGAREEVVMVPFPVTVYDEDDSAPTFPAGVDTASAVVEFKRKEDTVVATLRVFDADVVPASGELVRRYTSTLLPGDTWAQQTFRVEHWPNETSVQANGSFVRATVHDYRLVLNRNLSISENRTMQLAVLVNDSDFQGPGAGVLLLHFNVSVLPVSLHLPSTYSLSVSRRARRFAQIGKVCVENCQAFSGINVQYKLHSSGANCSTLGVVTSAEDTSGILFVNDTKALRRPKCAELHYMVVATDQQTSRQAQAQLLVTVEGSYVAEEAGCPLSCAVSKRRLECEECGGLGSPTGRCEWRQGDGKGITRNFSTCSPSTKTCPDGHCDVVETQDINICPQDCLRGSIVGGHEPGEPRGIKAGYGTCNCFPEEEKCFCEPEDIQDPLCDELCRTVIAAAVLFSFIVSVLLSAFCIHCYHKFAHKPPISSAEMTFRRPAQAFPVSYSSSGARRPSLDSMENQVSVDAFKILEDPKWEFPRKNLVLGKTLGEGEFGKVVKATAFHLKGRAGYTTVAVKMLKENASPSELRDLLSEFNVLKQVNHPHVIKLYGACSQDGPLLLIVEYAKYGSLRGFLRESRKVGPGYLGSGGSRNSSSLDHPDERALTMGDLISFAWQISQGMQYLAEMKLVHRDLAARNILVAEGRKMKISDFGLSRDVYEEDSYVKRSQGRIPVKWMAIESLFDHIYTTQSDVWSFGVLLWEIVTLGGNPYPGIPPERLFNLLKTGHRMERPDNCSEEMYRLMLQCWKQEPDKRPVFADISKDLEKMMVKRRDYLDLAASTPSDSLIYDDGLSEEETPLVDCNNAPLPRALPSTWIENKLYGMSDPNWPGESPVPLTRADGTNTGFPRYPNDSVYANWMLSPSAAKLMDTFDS
T1 sequence (P33176 2-963 partner limits assumed): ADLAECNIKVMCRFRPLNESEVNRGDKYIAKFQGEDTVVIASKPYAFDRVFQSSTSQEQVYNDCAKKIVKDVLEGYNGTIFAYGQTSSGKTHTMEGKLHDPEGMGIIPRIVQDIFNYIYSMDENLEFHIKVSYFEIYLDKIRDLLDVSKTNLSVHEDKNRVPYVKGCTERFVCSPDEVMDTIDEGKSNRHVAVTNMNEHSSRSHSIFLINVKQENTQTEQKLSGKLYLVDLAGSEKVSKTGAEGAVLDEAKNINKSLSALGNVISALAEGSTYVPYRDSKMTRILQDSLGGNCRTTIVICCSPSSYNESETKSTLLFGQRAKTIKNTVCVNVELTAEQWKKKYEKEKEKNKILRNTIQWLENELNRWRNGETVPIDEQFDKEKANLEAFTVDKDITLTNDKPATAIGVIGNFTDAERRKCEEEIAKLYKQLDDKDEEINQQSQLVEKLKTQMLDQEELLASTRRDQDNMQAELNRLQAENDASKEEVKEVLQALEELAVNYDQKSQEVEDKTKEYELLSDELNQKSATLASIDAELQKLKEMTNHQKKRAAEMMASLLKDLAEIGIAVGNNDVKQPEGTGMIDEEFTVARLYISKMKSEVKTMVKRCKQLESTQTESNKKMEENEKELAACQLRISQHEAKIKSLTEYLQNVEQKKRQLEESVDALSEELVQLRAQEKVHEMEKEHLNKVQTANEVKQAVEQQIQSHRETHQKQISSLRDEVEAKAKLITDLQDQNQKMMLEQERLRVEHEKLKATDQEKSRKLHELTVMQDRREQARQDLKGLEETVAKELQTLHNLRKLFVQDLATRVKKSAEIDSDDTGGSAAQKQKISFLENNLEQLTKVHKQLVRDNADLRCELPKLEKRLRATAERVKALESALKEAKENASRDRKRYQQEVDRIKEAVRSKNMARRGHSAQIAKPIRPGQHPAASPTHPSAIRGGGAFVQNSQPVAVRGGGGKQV

[3] = biological target: Proto-oncogene tyrosine-protein kinase receptor Ret (Homo sapiens, UniProt P07949, V804L); assay: Inhibition of recombinant human N-terminal GST-HIS6 fused RET V804L mutant C-terminal domain (H658 to S1114 residues) expressed in Sf9 insect cells using TRK-C-derived peptide as substrate in presence of [33P]-ATP by filter binding assay
Sequence of Proto-oncogene tyrosine-protein kinase receptor Ret (Homo sapiens, UniProt P07949, V804L) (P07949 29-1114 V804L limits assumed): as the sequence (P07949 29-1114 limits assumed) above, with V776L counted along it

[4] = Cmax in Sprague-Dawley rat at 10 mg/kg, po; format: ADME, organism-based; design: route oral, dose 10 mg/kg; settings: in vivo
[5] = Antiproliferative activity against human SKGT4 cells measured after 48 hrs by MTS assay; format: functional
[6] = system: Kinesin-1 heavy chain/ Tyrosine-protein kinase receptor RET (Homo sapiens), P07949+P33176 [V804M]; assay: Inhibition of KIF5B-RET V804M mutant fusion protein (unknown origin) expressed in mouse BaF3 cells assessed as reduction in AKT phosphorylation at 500 nM measured after 4 hrs by Western blot analysis; format: cell-based
[7] = biological target: T1, Kinesin-1 heavy chain/ Tyrosine-protein kinase receptor RET (Homo sapiens); assay: Inhibition of KIF5B-RET fusion protein (unknown origin) expressed in mouse BaF3 cells assessed as reduction in cell proliferation measured after 48 hrs by MTS assay; format: cell-based
[8] = biological target: T2, Coiled-coil domain-containing protein 6/Tyrosine-protein kinase receptor RET (Homo sapiens) (UniProt P07949+Q16204); assay: Inhibition of CCDC6-RET fusion protein (unknown origin) expressed in mouse BaF3 cells assessed as reduction in ERK phosphorylation at 10 to 500 nM measured after 4 hrs by Western blot analysis; format: cell-based; settings: dose 10-500 nM
T2 sequence (P07949 29-1114 limits assumed): as the sequence (P07949 29-1114 limits assumed) above
T2 sequence (Q16204 2-474 partner limits assumed): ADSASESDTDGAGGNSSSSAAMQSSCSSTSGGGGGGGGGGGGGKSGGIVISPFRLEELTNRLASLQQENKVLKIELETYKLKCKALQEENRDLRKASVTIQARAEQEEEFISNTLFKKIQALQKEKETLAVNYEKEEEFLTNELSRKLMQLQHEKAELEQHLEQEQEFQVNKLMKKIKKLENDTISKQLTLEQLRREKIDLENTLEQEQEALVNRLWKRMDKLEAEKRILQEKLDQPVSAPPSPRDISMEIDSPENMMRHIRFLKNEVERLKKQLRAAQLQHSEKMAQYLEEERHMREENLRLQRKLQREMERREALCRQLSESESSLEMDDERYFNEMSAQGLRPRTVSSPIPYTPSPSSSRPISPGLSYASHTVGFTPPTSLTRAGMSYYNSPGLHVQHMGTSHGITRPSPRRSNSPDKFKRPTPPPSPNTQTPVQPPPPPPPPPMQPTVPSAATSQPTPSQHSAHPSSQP

A-375 = assay: Antiproliferative activity against human A-375 cells measured after 48 hrs by MTS assay; format: functional
BaF3 [9] = assay: Inhibition of CCDC6-RET V804M mutant fusion protein (unknown origin) expressed in mouse BaF3 cells assessed as reduction in ERK phosphorylation at 10 to 500 nM measured after 4 hrs by Western blot analysis; format: cell-based; settings: Homo sapiens, dose 10-500 nM
BGC-823 = assay: Antiproliferative activity against human BGC-823 cells at 3.3 uM measured after 48 hrs by MTS assay; format: functional; settings: read-out: GI
[10] = Toxicity in BALB/c mouse implanted with KIF5B-RET fusion protein expressing mouse BaF3 cells assessed as body weight loss at 30 to 50 mg/kg, iv administered daily for 7 days measured daily during compound dosing; format: organism-based; settings: in vivo, 168 h, dose 30-50 mg/kg, time 7 day
[11] = biological target: T1, Kinesin-1 heavy chain/ Tyrosine-protein kinase receptor RET (Homo sapiens); assay: Inhibition of KIF5B-RET fusion protein (unknown origin) expressed in mouse BaF3 cells assessed as reduction in RET autophosphorylation at 50 nM measured after 4 hrs by Western blot analysis; format: cell-based
MDA-MB-231 = assay: Antiproliferative activity against human MDA-MB-231 cells measured after 48 hrs by MTS assay; format: functional
[12] = biological target: T3, Proto-oncogene tyrosine-protein kinase receptor Ret (Homo sapiens, UniProt P07949); assay: Inhibition of RET in human LC-2-ad cells assessed as reduction in SHC phosphorylation; format: cell-based
T3 sequence (P07949 whole entry, the tested form may be a part): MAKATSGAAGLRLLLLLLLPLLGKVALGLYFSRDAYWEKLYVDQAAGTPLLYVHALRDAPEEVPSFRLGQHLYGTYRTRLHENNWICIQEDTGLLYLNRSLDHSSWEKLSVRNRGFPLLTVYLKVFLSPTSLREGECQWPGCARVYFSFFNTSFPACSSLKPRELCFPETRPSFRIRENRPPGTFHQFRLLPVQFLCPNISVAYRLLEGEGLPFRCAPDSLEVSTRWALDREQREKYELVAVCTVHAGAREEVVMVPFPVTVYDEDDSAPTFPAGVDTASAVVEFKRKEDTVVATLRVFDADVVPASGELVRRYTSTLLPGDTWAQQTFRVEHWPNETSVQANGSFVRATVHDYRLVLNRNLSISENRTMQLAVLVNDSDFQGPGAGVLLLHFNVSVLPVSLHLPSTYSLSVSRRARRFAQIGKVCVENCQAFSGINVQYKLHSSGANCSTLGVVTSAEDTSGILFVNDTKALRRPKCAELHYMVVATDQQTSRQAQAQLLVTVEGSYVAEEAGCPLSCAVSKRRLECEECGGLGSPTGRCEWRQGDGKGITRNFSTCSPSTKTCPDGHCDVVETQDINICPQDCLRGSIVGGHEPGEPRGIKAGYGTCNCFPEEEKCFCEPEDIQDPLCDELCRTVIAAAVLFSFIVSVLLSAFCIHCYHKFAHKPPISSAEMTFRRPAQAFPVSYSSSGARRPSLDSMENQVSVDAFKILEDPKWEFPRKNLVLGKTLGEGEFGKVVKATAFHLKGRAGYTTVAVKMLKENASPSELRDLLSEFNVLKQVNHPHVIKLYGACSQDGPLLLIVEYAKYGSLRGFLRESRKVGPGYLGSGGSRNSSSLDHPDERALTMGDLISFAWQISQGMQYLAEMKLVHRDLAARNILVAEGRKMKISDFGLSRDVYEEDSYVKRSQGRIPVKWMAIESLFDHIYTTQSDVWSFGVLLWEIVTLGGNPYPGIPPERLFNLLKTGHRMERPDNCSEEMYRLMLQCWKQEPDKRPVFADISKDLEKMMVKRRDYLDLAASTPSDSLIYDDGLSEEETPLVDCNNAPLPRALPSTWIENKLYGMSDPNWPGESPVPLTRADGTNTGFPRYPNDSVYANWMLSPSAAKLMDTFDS

BaF3 [13] = assay: Antitumor activity against KIF5B-RET fusion protein expressing mouse BaF3 cells implanted in BALB/c mouse assessed as tumor growth inhibition at 30 to 50 mg/kg, iv administered once daily for 7 days relative to control; format: functional; settings: dose 30-50 mg/kg, time 7 day
BaF3 [14] = assay: Inhibition of CCDC6-RET V804M mutant fusion protein (unknown origin) expressed in mouse BaF3 cells assessed as reduction in SHC phosphorylation at 10 to 500 nM measured after 4 hrs by Western blot analysis; format: cell-based; settings: Homo sapiens, dose 10-500 nM
[15] = biological target: T3, Proto-oncogene tyrosine-protein kinase receptor Ret; assay: Inhibition of recombinant wild-type human N-terminal GST-HIS6 fused RET C-terminal domain (H658 to S1114 residues) expressed in Sf9 insect cells using TRK-C-derived peptide as substrate in presence of [33P]-ATP by filter binding assay
Mus musculus [16] = assay: (§1) In vivo inhibition of KIF5B-RET fusion protein in BALB/c mouse implanted with KIF5B-RET fusion protein expressing mouse BaF3 cells assessed as reduction in RET phosphorylation at 30 to 50 mg/kg, iv administered daily for 7 days and measured 4 hrs post last dose by Western blot analysis; format: functional, organism-based; settings: dose 30-50 mg/kg, time 7.0 day
[17] = AUC (0 to infinity) in Sprague-Dawley rat at 10 mg/kg, po; format: ADME, organism-based; design: time infinity, route oral, dose 10 mg/kg; settings: in vivo
[18] = biological target: T3, Proto-oncogene tyrosine-protein kinase receptor Ret; assay: Inhibition of RET phosphorylation in human LC-2-ad cells; format: cell-based
[19] = biological target: Coiled-coil domain-containing protein 6/Tyrosine-protein kinase receptor RET (Homo sapiens, UniProt P07949); assay: Inhibition of human N-terminal GST-HIS6 fused CCDC6-RET fusion protein (Met1 to Ser503 residues) expressed in Sf9 insect cells using TRK-C-derived peptide as substrate in presence of [33P]-ATP by filter binding assay
Sequence of Coiled-coil domain-containing protein 6/Tyrosine-protein kinase receptor RET (P07949 whole entry, the tested form may be a part): as above
Sequence of Coiled-coil domain-containing protein 6/Tyrosine-protein kinase receptor RET (Q16204 whole entry, further chain, the tested form may be a part): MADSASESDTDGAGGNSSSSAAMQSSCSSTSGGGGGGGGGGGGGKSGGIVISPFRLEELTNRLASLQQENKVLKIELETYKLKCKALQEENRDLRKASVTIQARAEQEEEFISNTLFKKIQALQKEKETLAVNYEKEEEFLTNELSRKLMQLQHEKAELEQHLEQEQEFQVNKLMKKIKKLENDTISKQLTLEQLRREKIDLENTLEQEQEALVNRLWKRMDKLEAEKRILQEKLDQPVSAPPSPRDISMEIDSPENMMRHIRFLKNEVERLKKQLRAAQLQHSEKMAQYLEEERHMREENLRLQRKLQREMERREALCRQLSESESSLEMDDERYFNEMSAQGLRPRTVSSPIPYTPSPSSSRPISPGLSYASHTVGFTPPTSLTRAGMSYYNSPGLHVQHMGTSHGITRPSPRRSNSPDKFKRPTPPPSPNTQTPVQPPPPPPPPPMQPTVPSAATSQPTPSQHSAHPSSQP

[20] = Cytotoxicity against mouse BaF3 cells assessed as reduction in cell proliferation measured after 48 hrs by MTS assay; format: cell-based
[21] = biological target: T2, Coiled-coil domain-containing protein 6/Tyrosine-protein kinase receptor RET (Homo sapiens); assay: Inhibition of CCDC6-RET fusion protein (unknown origin) expressed in mouse BaF3 cells assessed as reduction in RET phosphorylation at 10 to 500 nM measured after 4 hrs by Western blot analysis; format: cell-based; settings: dose 10-500 nM
Mus musculus [22] = assay: as §1, with “KIF5B-RET V804M mutant” for “KIF5B-RET”, “SHC” for “RET”; format: functional, organism-based; settings: dose 30-50 mg/kg, time 7.0 day
[23] = system: Kinesin-1 heavy chain/ Tyrosine-protein kinase receptor RET (Homo sapiens), P07949+P33176 [V804M]; assay: Inhibition of KIF5B-RET V804M mutant fusion protein (unknown origin) expressed in mouse BaF3 cells assessed as reduction in ERK phosphorylation at 500 nM measured after 4 hrs by Western blot analysis; format: cell-based
[24] = system: Kinesin-1 heavy chain/ Tyrosine-protein kinase receptor RET (Homo sapiens), P07949+P33176 [V804M]; assay: Inhibition of KIF5B-RET V804M mutant fusion protein (unknown origin) expressed in mouse BaF3 cells assessed as reduction in RET autophosphorylation at 100 nM measured after 4 hrs by Western blot analysis; format: cell-based
NCI-H3122 = assay: Antiproliferative activity against human NCI-H3122 cells measured after 48 hrs by MTS assay; format: functional
[25] = Half life in Sprague-Dawley rat at 1 mg/kg, iv; format: ADME, organism-based; settings: in vivo
[26] = AUC (0 to infinity) in Sprague-Dawley rat at 1 mg/kg, iv; format: ADME, organism-based; design: route intravenous, time infinity, dose 1 mg/kg; settings: in vivo
HepG2 = assay: Antiproliferative activity against human HepG2 cells at 3.3 uM measured after 48 hrs by MTS assay; format: functional; settings: read-out: GI
BaF3 [27] = assay: Induction of apoptosis in KIF5B-RET fusion protein expressing mouse BaF3 cells implanted in BALB/c mouse assessed as increase in cleaved caspase-3 level at 30 to 50 mg/kg, iv administered once daily for 7 days measured 4 hrs post last dose by H and E staining based immunohistochemical analysis; format: functional, organism-based; settings: dose 30-50 mg/kg, time 7.0 day

Cc1ccc(C(=O)Nc2ccc(CN3CCN(C)CC3)c(C(F)(F)F)c2)cc1Oc1nc(-c2cccnc2)nc2[nH]ncc12
Activity (BaF3 [1]): Active
inhibition [2]: Dose-dependent effect
IC50 [3]: 15.1 nM
Cmax [4]: 194 ng/mL
GI50 [5]: 5370 nM
inhibition [6]: Active
GI50 [7]: 17 nM
inhibition [8]: Active
GI50 (A-375): 2950 nM
inhibition (BaF3 [9]): Active
inhibition of growth at 3.3 µM (BGC-823): 39%
Activity [10]: Non-Toxic
inhibition [11]: Dose-dependent effect
GI50 (MDA-MB-231): 2430 nM
inhibition [12]: Active
TGI (BaF3 [13]): >60%
inhibition (BaF3 [14]): Active
IC50 [15]: 3.98 nM
inhibition (Mus musculus [16]): Dose-dependent effect
AUC(0-inf) [17]: 2340 ng·h/mL
inhibition [18]: Active
IC50 [19]: 5.43 nM
GI50 at 48 h [20]: 8030 nM
inhibition [21]: Active
inhibition (Mus musculus [22]): Dose-dependent effect
inhibition [23]: Active
inhibition [24]: Dose-dependent effect
GI50 (NCI-H3122): 5680 nM
half-life [25]: 4.28 h
AUC(0-inf) [26]: 7010 ng·h/mL
inhibition of growth at 3.3 µM (HepG2): 33%
Activity (BaF3 [27]): Active
